Test results from US10487053B2, “Acid addition salt of 1-(5-(2,4-difluorophenyl)-1-((3-fluorophenyl)sulfonyl)-4-methoxy-1H-pyrrol-3-yl)-N-methylmethanamine” (Daewoong Pharmaceutical Co., Ltd., priority 2016, dated 2019).
Blank lines part the entries; values can stand above or below the compound they belong to.

Legend:
[1] = Stability confirmation test (impurity formation during storage under severe conditions, liquid chromatography); assay type: physicochemical
Protocol: The stability test was carried out for the acid addition salts prepared in the Examples to evaluate the degree to which impurities were formed during storage under severe conditions (moisture-proof condition and high-humidity exposure condition). The results of the stability test under the moisture-proof condition were shown in Table 2 below, and the results of the stability test under the high-humidity exposure condition were shown in Table 3 below. For the stability test, vials containing 10 mg of each sample which was precisely weighed and taken were prepared in the planned quantity, and they were stored by dividing into the moisture-proof condition (60° C. and less than 10% relative humidity) and under the high-humidity exposure condition (60° C. and 95% relative humidity). However, under the high-humidity exposure condition, a stopper of the vial was not used to keep so that the sample is in sufficient contact with a moisture in the air. At a fixed point of time after the initiation of the test, two vials per point of time were taken (number of samples per test n=2). 10 ml of methanol was added to each vial to dissolve the sample, which was then centrifuged. The resulting supernatant was analyzed using a liquid chromatography. The peak area was determined by integration for all detected peaks, and the relative peak area for the main component and the total impurity was calculated and expressed as an average value.

[2] = Solubility test in water; assay type: physicochemical; details: deionized water, thermodynamic from solid
Protocol: For the solubility test in water, a sample of less than 10 mg was first precisely weighed and taken, and placed into a vial, to which 50 μl of deionized water was added, shaking for 30 seconds and ultrasonic shaking for 1 minute were carried out, and these processes were repeated several times. The water solubility was calculated by measuring the amount of water used to dissolve all the samples.

[3] = high-humidity exposure condition (60° C. and 95% relative humidity), After 1 week
[4] = high-humidity exposure condition (60° C. and 95% relative humidity), After 2 weeks
[5] = high-humidity exposure condition (60° C. and 95% relative humidity), After 4 weeks
[6] = high-humidity exposure condition (60° C. and 95% relative humidity), Initial
[7] = moisture-proof condition (60° C. and less than 10% relative humidity), After 2 weeks
[8] = moisture-proof condition (60° C. and less than 10% relative humidity), After 4 weeks
[9] = moisture-proof condition (60° C. and less than 10% relative humidity), Initial

Structure (SMILES): CNCc1cn(S(=O)(=O)c2cccc(F)c2)c(-c2ccc(F)cc2F)c1OC.Cl [Example 1, 1-(5-(2,4-difluorophenyl)-1-((3-fluorophenyl)sulfonyl)-4-methoxy-1H-pyrrol-3-yl)-N-methylmethanamine hydrochloride]
Peak area of main component (%) [1, 3]: 99.81%
Peak area of total impurities (%) [1, 3]: 0.19%
Peak area of main component (%) [1, 4]: 99.80%
Peak area of total impurities (%) [1, 4]: 0.20%
Peak area of main component (%) [1, 5]: 99.80%
Peak area of total impurities (%) [1, 5]: 0.20%
Peak area of main component (%) [1, 6]: 99.82%
Peak area of total impurities (%) [1, 6]: 0.18%
Peak area of main component (%) [1, 7]: 99.80%
Peak area of total impurities (%) [1, 7]: 0.19%
Peak area of main component (%) [1, 8]: 99.80%
Peak area of total impurities (%) [1, 8]: 0.20%
Peak area of main component (%) [1, 9]: 99.82%
Peak area of total impurities (%) [1, 9]: 0.18%
solubility [2]: 11100 µg/mL

Structure (SMILES): CNCc1cn(S(=O)(=O)c2cccc(F)c2)c(-c2ccc(F)cc2F)c1OC.O=C(O)CCC(=O)O [Example 2, 1-(5-(2,4-difluorophenyl)-1-((3-fluorophenyl)sulfonyl)-4-methoxy-1H-pyrrol-3-yl)-N-methylmethanamine succinate]
Peak area of main component (%) [1, 3]: 99.56%
Peak area of total impurities (%) [1, 3]: 0.44%
Peak area of main component (%) [1, 4]: 99.53%
Peak area of total impurities (%) [1, 4]: 0.47%
Peak area of main component (%) [1, 5]: 99.47%
Peak area of total impurities (%) [1, 5]: 0.54%
Peak area of main component (%) [1, 6]: 99.55%
Peak area of total impurities (%) [1, 6]: 0.45%
Peak area of main component (%) [1, 7]: 99.61%
Peak area of total impurities (%) [1, 7]: 0.39%
Peak area of main component (%) [1, 8]: 99.55%
Peak area of total impurities (%) [1, 8]: 0.45%
Peak area of main component (%) [1, 9]: 99.55%
Peak area of total impurities (%) [1, 9]: 0.45%
solubility [2]: 7200 µg/mL

Structure (SMILES): CNCc1cn(S(=O)(=O)c2cccc(F)c2)c(-c2ccc(F)cc2F)c1OC [Preparation Example, 1-(5-(2,4-difluorophenyl)-1-((3-fluorophenyl)sulfonyl)-4-methoxy-1H-pyrrol-3-yl)-N-methylmethanamine]
solubility [2]: < 160 µg/mL

Next, values leading:

Peak area of main component (%) [1, 3]: 99.48%
Peak area of total impurities (%) [1, 3]: 0.52%
Peak area of main component (%) [1, 4]: 99.43%
Peak area of total impurities (%) [1, 4]: 0.57%
Peak area of main component (%) [1, 5]: 99.23%
Peak area of total impurities (%) [1, 5]: 0.77%
Peak area of main component (%) [1, 6]: 99.52%
Peak area of total impurities (%) [1, 6]: 0.48%
Peak area of main component (%) [1, 7]: 99.54%
Peak area of total impurities (%) [1, 7]: 0.46%
Peak area of main component (%) [1, 8]: 99.48%
Peak area of total impurities (%) [1, 8]: 0.52%
Peak area of main component (%) [1, 9]: 99.52%
Peak area of total impurities (%) [1, 9]: 0.48%
solubility [2]: 6900 µg/mL
Structure (SMILES): CNCc1cn(S(=O)(=O)c2cccc(F)c2)c(-c2ccc(F)cc2F)c1OC.O=C(O)C(O)C(O)C(=O)O [Example 3, 1-(5-(2,4-difluorophenyl)-1-((3-fluorophenyl)sulfonyl)-4-methoxy-1H-pyrrol-3-yl)-N-methylmethanamine tartrate]

Peak area of main component (%) [1, 3]: 99.40%
Peak area of total impurities (%) [1, 3]: 0.60%
Peak area of main component (%) [1, 4]: 99.32%
Peak area of total impurities (%) [1, 4]: 0.68%
Peak area of main component (%) [1, 5]: 99.30%
Peak area of total impurities (%) [1, 5]: 0.70%
Peak area of main component (%) [1, 6]: 99.38%
Peak area of total impurities (%) [1, 6]: 0.62%
Peak area of main component (%) [1, 7]: 99.36%
Peak area of total impurities (%) [1, 7]: 0.64%
Peak area of main component (%) [1, 8]: 99.37%
Peak area of total impurities (%) [1, 8]: 0.63%
Peak area of main component (%) [1, 9]: 99.38%
Peak area of total impurities (%) [1, 9]: 0.62%
solubility [2]: 1730 to 2600 µg/mL
Structure (SMILES): CNCc1cn(S(=O)(=O)c2cccc(F)c2)c(-c2ccc(F)cc2F)c1OC.O=C(O)/C=C/C(=O)O [Example 4, 1-(5-(2,4-difluorophenyl)-1-((3-fluorophenyl)sulfonyl)-4-methoxy-1H-pyrrol-3-yl)-N-methylmethanamine fumarate]
